Test results taken from US10578608B1, “Tools to detect, track and target cancer cells in vivo” (The Regents of the University of California, priority 2015, dated 2020).
k = constrained ethyl (cEt); d = 2'-deoxy (DNA)

Tests used:
MSI1 RNA = assay: MSI1 expression after ASO free uptake (q-RT-PCR); format: cell-based, human; conditions: 24 hours, MIA PaCa-2 cells
Method: (FIG. 8 F to FIG. 8H) Real time PCR analysis of Msi expression following ASO free uptake in MIA PaCa-2 cells. MIA PaCa-2 cells were treated with 2 Gen 2.5 cEt ASOx target MSI1 or Control Gen 2.5 ASO for 24 hours, RNA was isolated and target knockdown (MSI1 RNA level) was determined by q-RT-PCR. IC50 values for each ASO were calculated using GraphPad Prism software; each treatment condition was performed in triplicate. (FIG. 8I) Colony formation assay in MSI1 ASO-treated MIA PaCa-2 cells after weekly delivery of control or MSI1 ASOs; colonies were counted after 4 weeks; n=3 for each ASO tested. (FIG. 8J) In vivo tracking of tumor volume in MSI1 ASO treated MIA PaCa-2 tumors with intratumoral delivery of control or MSI1 ASOs every day for 5 days followed by 2 days off; n=5 for each ASO tested. Nonlinear regression was used to determine the difference in slope between Control ASO and MSI1-ASO-1 (p<0.001). (FIG. 8K) In vivo tracking of tumor volume of primary KP^f/fC tumors with intratumoral delivery of control ASO or MSI1 ASOs following tumor establishment (n=4). […]
To identify human Msi ASO inhibitors, rapid throughput screens were performed to identify effective ASOs as previously described (Wang, J. C. Y. & Dick, J. E. Cancer stem cells: lessons from leukemia. Trends in Cell Biology 15, 494-501 (2005); Reya, T., Morrison, S. J., Clarke, M. F. & Weissman, I. L. Stem cells, cancer, and cancer stem cells. Nature 414(6859):105-11 (2001); Carroll, J. B. et al. Potent and Selective Antisense Oligonucleotides Targeting Single-Nucleotide Polymorphisms in the Huntington Disease Gene/Allele-Specific Silencing of Mutant Huntingtin. Molecular Therapy 19, 2178-2185 (2009); Samuel, V. T. et al. Targeting foxo1 in mice using antisense oligonucleotide improves hepatic and peripheral insulin action. […] Gene expression was assessed with taqman probes for MSI1 and MSI2. […] Colonies were counted 21 days after the first ASO treatment. […] Tumor measurements were recorded every 3 days. […]

MIA PaCa-2 tumors = assay: In vivo growth of MIA PaCa-2 flank tumors with intratumoral ASO; set-up: species or system mouse; conditions: intratumoral delivery, four weeks (5 days on and 2 days off), NSG mice
Text: Although ASOs have been used to inhibit gene expression in a variety of tissues (Carroll, J. B. et al. Potent and Selective Antisense Oligonucleotides Targeting Single-Nucleotide Polymorphisms in the Huntington Disease Gene/Allele-Specific Silencing of Mutant Huntingtin. Molecular Therapy 19, 2178-2185 (2009); Hung, G. et al. Characterization of Target mRNA Reduction Through In SituRNA Hybridization in Multiple Organ Systems Following Systemic Antisense Treatment in Animals. Nucleic Acid Therapeutics 23, 369-378 (2013); Rigo, F. et al. Pharmacology of a central nervous system delivered 2′-O-methoxyethyl-modified survival of motor neuron splicing oligonucleotide in mice and nonhuman primates. Journal of Pharmacology and Experimental Therapeutics 350, 46-55 (2014)), whether pancreatic cancer cells can take up ASOs was not known. […] Functionally MSI1 ASOs led to a marked reduction in colony numbers as well as in colony size, with a cumulative reduction of ˜2.5 fold in total growth (FIG. 4I). To test the impact of ASO mediated MSI1 inhibition in vivo, human pancreatic cancer cells were transplanted until growth was measurable. Subsequently, MSI1 inhibitors were delivered intratumorally for a period of four weeks (5 days on and 2 days off) and tumor growth monitored. […] KP^f/fC pancreatic tumor cells were isolated, transplanted and monitored until measurable growth (30 mm^3). […]

## 5′-ATATGATACAGGACGG-3′ (sugars from the 5' end k3 d10 k3, backbone and methylation of C not given here) [ASO-1]
MSI1 RNA
  MSI1 expression in cell lines after ASO treatment: inhibited MSI1 expression
MIA PaCa-2 tumors
  Tumor growth of human pancreatic cancer cell line derived tumors: significant reduction in the rate of tumor growth
